Results on 13 compounds are retold here after PubChem BioAssay (NCI).

Some test systems named below: MOLT-4 leukemia; SF-268 CNS; HS 578T breast; 786-0 renal; A498 renal; SF-295 CNS; SN12C renal; NCI-H226 lung; COLO 205 colon; UACC-257 melanoma; HCC-2998 colon.
What all share (test): NCI-60 cell line screen, 48 h

Where “and” joins values, the source holds several entries; their conditions need not be identical. Equal values may be shown once.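 96-well plates; 48 h exposure; 5 concentrations. Endpoints by linear interpolation between flanking doses. Not reached: highest tested concentration assigned. Abbreviation: GI50, concentration required for 50% inhibition of growth. The concentration for full growth arrest is given as TGI.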

Consider `O=C1CCc2ccccc2O1`, for which the TGI in the assay on MOLT-4 leukemia, with SF-268 CNS, in the assay on HS 578T breast, with 786-0 renal, in the assay with A498 renal and in the assay on SF-295 CNS was greater than 100 µM each time. Also, the TGI with SN12C renal, with NCI-H226 lung, in the assay on COLO 205 colon, in the assay on UACC-257 melanoma and in the assay with HCC-2998 colon was greater than 100 µM throughout.

For `NC(CS)C(=O)NCCNc1ccc(NCCNC(=O)C(N)CS)c2c1C(=O)c1c(O)ccc(O)c1C2=O` (stereo unspecified), the TGI was 0.62 µM with MOLT-4 leukemia; 0.953 µM in the assay with SF-268 CNS; 0.615 µM in the assay with HS 578T breast; 0.0831 µM and 0.0438 µM in the assay on 786-0 renal; 0.344 µM with A498 renal; 0.276 µM and 0.0386 µM in the assay with SF-295 CNS. The TGI in the assay on SN12C renal is 0.0822 µM and 0.0691 µM; in the assay on NCI-H226 lung, 0.0616 µM and 0.0476 µM; in the assay with COLO 205 colon it was 1.83 µM and 1.12 µM; in the assay on UACC-257 melanoma it was 2.41 µM and 2.29 µM; in the assay with HCC-2998 colon it was 1.13 µM and 0.822 µM. Further, the GI50 in the assay on COLO 205 colon is 0.136 µM; with HCC-2998 colon, 0.196 µM.

For the compound `COc1cc2c(cc1OC)-c1[nH]c3ccc([N+](=O)[O-])cc3c1CC(=O)N2`, the TGI in the assay with MOLT-4 leukemia is greater than 76.4 µM; in the assay on HS 578T breast it was greater than 100 µM; with 786-0 renal it was greater than 100 µM; with A498 renal, 8.31 µM; in the assay on SF-295 CNS, greater than 87.8 µM; in the assay with SN12C renal it was greater than 55.1 µM. For the same compound, the TGI turned out to be 1.66 µM with NCI-H226 lung, 0.811 µM in the assay on COLO 205 colon, 47.1 µM with UACC-257 melanoma and 5.6 µM with HCC-2998 colon.

For the compound `O=[N+]([O-])c1ccc2c(N=Nc3ccc4ccccc4c3O)c(O)cc(S(=O)(=O)O)c2c1`, the TGI in the assay with MOLT-4 leukemia is greater than 51 µM; with SF-268 CNS, 63.9 µM; with HS 578T breast, greater than 100 µM; in the assay on 786-0 renal, greater than 81.1 µM; in the assay on A498 renal it was greater than 100 µM; with SF-295 CNS it was greater than 85.7 µM. For the same compound, the TGI with SN12C renal was greater than 100 µM; in the assay with NCI-H226 lung, 52.5 µM; in the assay with COLO 205 colon, greater than 82.9 µM; in the assay with UACC-257 melanoma, greater than 100 µM; with HCC-2998 colon, greater than 100 µM.

As for `Cc1cc2c(cc1-c1cc3c(cc1C)C(C(C)C)=C(O)C(=O)/C3=C\Nc1ccccn1)/C(=C/Nc1ccccn1)C(=O)C(O)=C2C(C)C`, the TGI in the assay with MOLT-4 leukemia, with SF-268 CNS, with HS 578T breast, in the assay on 786-0 renal, in the assay with A498 renal and in the assay with SF-295 CNS was greater than 100 µM in each case. The TGI in the assay on SN12C renal is greater than 100 µM; in the assay with NCI-H226 lung it was 77.8 µM; with COLO 205 colon it was greater than 100 µM; in the assay with UACC-257 melanoma it was greater than 100 µM; in the assay with HCC-2998 colon, 60.2 µM.

Consider `Cc1ccc(O)cc1` (tested in a mixture with another compound), for which the TGI in the assay on MOLT-4 leukemia, in the assay on SF-268 CNS, in the assay on HS 578T breast, with 786-0 renal, in the assay with A498 renal and in the assay with SF-295 CNS was greater than 100 µM throughout. The TGI with SN12C renal, with NCI-H226 lung, with COLO 205 colon, in the assay on UACC-257 melanoma and in the assay with HCC-2998 colon was greater than 100 µM throughout.

Take `N#CCN1CCCN(CC#N)CCN(CC#N)CCCN(CC#N)CC1`: the TGI in the assay on MOLT-4 leukemia, in the assay with SF-268 CNS, in the assay with HS 578T breast, in the assay on 786-0 renal, in the assay with A498 renal and in the assay with SF-295 CNS was greater than 100 µM in each case. The TGI in the assay on SN12C renal, in the assay with NCI-H226 lung, in the assay on COLO 205 colon, with UACC-257 melanoma and with HCC-2998 colon was greater than 100 µM in each case.

With `CCOC(=O)[C@@]12NN=N[C@@H]1[C@H]1CO[C@H](c3ccccc3)N1C2=O`, the TGI in the assay with MOLT-4 leukemia was greater than 100 µM; with SF-268 CNS, 30.8 µM; in the assay with HS 578T breast, 17.8 µM; in the assay on 786-0 renal it was 30.3 µM; in the assay on A498 renal, 24.1 µM; with SF-295 CNS, 27.5 µM. In addition, the TGI came to 26.8 µM with SN12C renal, 23.5 µM in the assay with COLO 205 colon, 19.7 µM in the assay on UACC-257 melanoma and 25.7 µM with HCC-2998 colon.

In the case of `CCOC(=O)c1cc([N+](=O)[O-])cc([N+](=O)[O-])c1Sc1ncnc2nc[nH]c12`, the TGI with MOLT-4 leukemia is greater than 26.8 µM; in the assay with SF-268 CNS, 16 µM; in the assay with HS 578T breast it was 71.2 µM; in the assay on 786-0 renal it was 2.07 µM; with A498 renal it was 25.3 µM; in the assay with SF-295 CNS, 38.1 µM. The TGI in the assay with SN12C renal was 5.34 µM; in the assay on NCI-H226 lung it was greater than 100 µM; with COLO 205 colon, 5.03 µM; in the assay on HCC-2998 colon, 30.2 µM.

Regarding `COc1ccc(Oc2nc3c(N)cc(C(F)(F)F)cc3nc2-c2ccccc2)cc1`, the TGI was greater than 100 µM in the assay on MOLT-4 leukemia; 64.5 µM with SF-268 CNS; 43 µM with HS 578T breast; 56.4 µM with 786-0 renal; 55.6 µM in the assay with A498 renal; 41.2 µM with SF-295 CNS. Further, the TGI with NCI-H226 lung was 35.7 µM; with COLO 205 colon, 25.6 µM; with UACC-257 melanoma, greater than 100 µM; in the assay with HCC-2998 colon, greater than 100 µM.

On to `Cc1cc2nc(CC(C(F)(F)F)C(F)(F)F)oc2cc1C`, for which the TGI in the assay on SF-268 CNS stood at 8.2 µM; with HS 578T breast, 16.6 µM; with A498 renal it was 26.3 µM; with SF-295 CNS, 18.6 µM; with NCI-H226 lung, 4.81 µM; in the assay with COLO 205 colon, 4.98 µM. Moreover, the TGI in the assay with UACC-257 melanoma stood at 9.55 µM; with HCC-2998 colon, 11.8 µM.

As to `COc1cc(/C=C/C2=NN(c3cccc(S(=O)(=O)O)c3)C3(C2)SCC(=O)N3c2nc3ccccc3s2)cc(OC)c1OC` (stereo unspecified), the TGI is greater than 100 µM in the assay on MOLT-4 leukemia; greater than 100 µM in the assay on SF-268 CNS; greater than 100 µM in the assay with HS 578T breast; 37.5 µM in the assay on 786-0 renal; greater than 100 µM in the assay on A498 renal; greater than 100 µM with SN12C renal. For the same compound, the TGI with NCI-H226 lung, in the assay with COLO 205 colon, in the assay on UACC-257 melanoma and in the assay on HCC-2998 colon was greater than 100 µM in each case.

Regarding `c1ccc(Sc2nc(Sc3ccccc3)nc(Sc3ccccc3)n2)cc1`, the TGI with MOLT-4 leukemia is greater than 100 µM; in the assay with SF-268 CNS it was greater than 100 µM; in the assay with HS 578T breast it was 75.4 µM; in the assay on A498 renal, 86.8 µM; in the assay on SF-295 CNS, greater than 100 µM; in the assay with SN12C renal, greater than 100 µM. For the same compound, the TGI in the assay with NCI-H226 lung was 77.9 µM; in the assay on COLO 205 colon, 38.7 µM; with UACC-257 melanoma, greater than 100 µM; in the assay on HCC-2998 colon, 37.8 µM.
